Experimental data from patent US20090175882A1, “METHODS AND COMPOSITIONS FOR TREATING HYPERALGESIA” (IRM LLC, priority 2006, published 2009).
“Also recorded” adds a separate entry of the source.

Experiments:
mouse TRPA1 = target: T1, mouse TRPA1 (Mus musculus, UniProt Q8BLA8); test: FLIPR calcium-influx assay, block of cinnamaldehyde activation, CHO cells; type: cell-based; conditions: elicited by 50 μM cinnamaldehyde, CHO cells
T1 construct: expressed in transfected cells; host or cells: CHO cells (tetracycline-induced for PatchXpress; mTRPA1-pcDNA5 named for the transient labelling experiment)
T1 sequence (Q8BLA8 whole entry): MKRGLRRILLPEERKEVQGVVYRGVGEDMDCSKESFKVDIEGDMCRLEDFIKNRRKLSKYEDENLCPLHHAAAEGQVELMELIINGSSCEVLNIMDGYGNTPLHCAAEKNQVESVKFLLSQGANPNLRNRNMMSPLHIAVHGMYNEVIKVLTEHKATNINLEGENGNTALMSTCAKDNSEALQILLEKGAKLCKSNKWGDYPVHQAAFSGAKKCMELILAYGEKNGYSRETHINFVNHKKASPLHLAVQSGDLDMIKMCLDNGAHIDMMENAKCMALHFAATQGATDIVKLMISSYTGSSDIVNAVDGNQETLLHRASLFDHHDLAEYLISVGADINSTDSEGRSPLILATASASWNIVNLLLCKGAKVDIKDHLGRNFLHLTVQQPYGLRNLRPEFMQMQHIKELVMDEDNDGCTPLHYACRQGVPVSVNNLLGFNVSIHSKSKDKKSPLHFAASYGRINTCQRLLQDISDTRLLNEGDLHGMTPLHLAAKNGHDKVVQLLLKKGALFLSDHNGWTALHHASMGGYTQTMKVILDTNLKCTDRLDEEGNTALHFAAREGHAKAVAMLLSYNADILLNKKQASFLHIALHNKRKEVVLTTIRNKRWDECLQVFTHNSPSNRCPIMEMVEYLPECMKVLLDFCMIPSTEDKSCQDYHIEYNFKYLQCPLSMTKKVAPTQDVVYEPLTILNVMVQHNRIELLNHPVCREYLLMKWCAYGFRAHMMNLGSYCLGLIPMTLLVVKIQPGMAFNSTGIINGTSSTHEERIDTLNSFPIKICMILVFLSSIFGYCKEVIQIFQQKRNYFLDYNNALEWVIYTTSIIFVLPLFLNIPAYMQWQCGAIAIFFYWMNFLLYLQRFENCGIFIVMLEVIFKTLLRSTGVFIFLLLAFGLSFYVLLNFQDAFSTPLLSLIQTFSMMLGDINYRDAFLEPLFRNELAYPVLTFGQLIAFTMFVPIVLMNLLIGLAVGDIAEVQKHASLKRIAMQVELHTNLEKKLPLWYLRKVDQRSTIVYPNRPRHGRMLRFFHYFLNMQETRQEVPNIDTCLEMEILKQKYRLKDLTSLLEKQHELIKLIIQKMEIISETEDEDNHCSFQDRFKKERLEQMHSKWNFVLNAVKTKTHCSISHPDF

rat TRPA1 = rat TRPA1 (Rattus norvegicus, UniProt Q6RI86); test: Block of rat TRPA1 (data not shown); type: cell-based
TRPV1 = target: T2, TRPV1 (Rattus norvegicus, UniProt O35433); test: ThermoTRP selectivity test; type: cell-based; conditions: at 50 μM (data not shown)
T2 construct: expressed in transfected cells; not restated for the selectivity test

TRPV4 = target: T3, TRPV4 (Rattus norvegicus, UniProt Q9ERZ8); test: ThermoTRP selectivity test; type: cell-based; conditions: at 50 μM (data not shown)
T3 construct: expressed in transfected cells; not restated for the selectivity test
T3 sequence (Q9ERZ8 whole entry): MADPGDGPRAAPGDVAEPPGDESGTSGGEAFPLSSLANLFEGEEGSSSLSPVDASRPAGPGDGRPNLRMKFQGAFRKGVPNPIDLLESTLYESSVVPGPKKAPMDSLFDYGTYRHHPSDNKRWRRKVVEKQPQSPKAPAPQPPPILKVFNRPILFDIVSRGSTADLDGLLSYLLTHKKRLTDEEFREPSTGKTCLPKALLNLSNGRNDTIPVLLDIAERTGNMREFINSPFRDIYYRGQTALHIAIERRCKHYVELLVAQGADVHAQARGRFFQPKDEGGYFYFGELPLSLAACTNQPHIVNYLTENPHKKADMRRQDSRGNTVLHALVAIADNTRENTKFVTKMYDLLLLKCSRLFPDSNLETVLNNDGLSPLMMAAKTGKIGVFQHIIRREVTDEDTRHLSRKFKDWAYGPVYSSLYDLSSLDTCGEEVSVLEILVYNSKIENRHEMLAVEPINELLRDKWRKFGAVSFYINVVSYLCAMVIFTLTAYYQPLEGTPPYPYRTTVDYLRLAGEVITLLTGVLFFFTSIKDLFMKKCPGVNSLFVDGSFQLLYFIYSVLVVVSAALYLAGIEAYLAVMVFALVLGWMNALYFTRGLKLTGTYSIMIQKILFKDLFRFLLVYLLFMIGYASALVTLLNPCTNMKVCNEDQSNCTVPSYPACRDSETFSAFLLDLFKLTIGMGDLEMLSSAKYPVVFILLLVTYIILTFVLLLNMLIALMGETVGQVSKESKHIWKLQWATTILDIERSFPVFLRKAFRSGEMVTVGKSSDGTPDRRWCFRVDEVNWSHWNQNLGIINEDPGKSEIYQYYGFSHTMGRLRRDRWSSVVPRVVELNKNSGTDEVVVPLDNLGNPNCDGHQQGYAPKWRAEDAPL

TRPM8 = target: T4, TRPM8 (Mus musculus, UniProt Q8R4D5); test: ThermoTRP selectivity test; type: cell-based; conditions: at 50 μM (data not shown)
T4 construct: expressed in transfected cells; not restated for the selectivity test
T4 sequence (Q8R4D5 whole entry): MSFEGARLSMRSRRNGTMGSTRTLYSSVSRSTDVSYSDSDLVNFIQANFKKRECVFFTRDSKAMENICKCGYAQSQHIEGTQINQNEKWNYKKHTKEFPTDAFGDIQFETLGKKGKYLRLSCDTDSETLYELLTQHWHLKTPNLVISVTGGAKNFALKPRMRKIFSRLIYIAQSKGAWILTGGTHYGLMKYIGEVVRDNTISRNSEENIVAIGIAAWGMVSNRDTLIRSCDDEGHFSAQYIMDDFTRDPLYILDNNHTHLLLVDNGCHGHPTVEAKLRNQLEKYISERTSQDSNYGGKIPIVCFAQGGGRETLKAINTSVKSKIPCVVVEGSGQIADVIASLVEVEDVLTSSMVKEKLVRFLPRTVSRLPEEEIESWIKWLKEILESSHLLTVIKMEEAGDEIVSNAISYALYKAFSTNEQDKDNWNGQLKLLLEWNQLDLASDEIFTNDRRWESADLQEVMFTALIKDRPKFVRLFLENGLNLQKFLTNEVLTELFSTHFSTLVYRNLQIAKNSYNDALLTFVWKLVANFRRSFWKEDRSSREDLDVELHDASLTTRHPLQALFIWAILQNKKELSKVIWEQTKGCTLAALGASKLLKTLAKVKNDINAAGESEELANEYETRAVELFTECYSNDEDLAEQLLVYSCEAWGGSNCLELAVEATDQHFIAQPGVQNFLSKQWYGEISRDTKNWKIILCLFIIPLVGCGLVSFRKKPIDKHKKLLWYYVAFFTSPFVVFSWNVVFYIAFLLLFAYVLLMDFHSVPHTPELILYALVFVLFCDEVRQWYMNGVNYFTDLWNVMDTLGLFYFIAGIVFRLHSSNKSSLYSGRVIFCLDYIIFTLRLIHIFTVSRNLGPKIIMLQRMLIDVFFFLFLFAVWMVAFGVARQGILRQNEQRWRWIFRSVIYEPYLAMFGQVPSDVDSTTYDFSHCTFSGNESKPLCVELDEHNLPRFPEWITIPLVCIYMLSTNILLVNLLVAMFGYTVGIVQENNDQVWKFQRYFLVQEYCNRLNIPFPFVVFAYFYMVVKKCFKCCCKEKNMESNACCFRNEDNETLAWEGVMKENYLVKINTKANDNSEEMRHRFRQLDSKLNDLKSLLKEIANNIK

[1] = system: cinnamaldehyde-induced nociceptive events; test: Acute nociceptive behaviour after hindpaw injection of cinnamaldehyde; type: in vivo, mice; conditions: cinnamaldehyde 16.4 mM coinjected with compound 18 1 mM
[2] = Behavioral response to the compound alone in hindpaw; type: in vivo; conditions: 1-10 mM in hindpaw of mice (data not shown)
[3] = system: acute heat or pressure to the paw; test: Nociceptive responses to acute heat or pressure to the paw; type: in vivo; conditions: data not shown
[4] = system: CFA-induced mechanical hyperalgesia; test: CFA-induced mechanical hyperalgesia (Von Frey threshold); type: in vivo; conditions: injected into hindpaw 24 hours after CFA, mice
[5] = system: BK-induced nociceptive mechanical behaviours; test: Bradykinin-induced mechanical hyperalgesia (Von Frey threshold); type: in vivo; conditions: short term hyperalgesia model, 1 mM coinjected, mice
[6] = system: CFA-induced heat hyperalgesia; test: CFA-induced heat hyperalgesia; type: in vivo; conditions: mice
[7] = system: bradykinin (BK)-induced heat hyperalgesia; test: Bradykinin-induced heat hyperalgesia; type: in vivo; conditions: mice
[8] = system: CFA-induced cold hyperalgesia; test: CFA-induced cold hyperalgesia on a 5° C. plate; type: in vivo; conditions: rats
[9] = system: TRPV1, TRPV2, TRPV3, TRPV4, or TRPM8; test: Effect on other thermoTRPs (summary statement); type: cell-based
Description: TRPA1 inhibitors that can be employed in the practice of the present invention include compounds that interferes with the expression, modification, regulation or activation of TRPA1, or compounds that down-regulates one or more of the normal biological activities of TRPA1 (e.g., its ion channel). […] Various TRPA1-specific antagonists can be used in the instant invention. Some of these TRPA1-specific inhibitors are identified by the present inventors, as described in the Examples below. These compounds can be obtained commercially or are otherwise described in the art. One such compound is Compound 18, (Z)-4-(4-chlorophynyl)-3-methylbut-3-en-2-oxime. This compound can be obtained commercially from Maybridge (Cornwall, UK). Another example is Compound 40, N,N′-Bis-(2-hydroxybenzyl)-2,5-diamino-2,5-dimethylhexane, which has been described in U.S. Pat. No. 4,129,556. […] Thus, these two compounds can be readily used to treat or alleviate mechanical hyperalgesia as described in more detail below.

TRPA1 [10] = target: T5, TRPA1 (Homo sapiens, UniProt O75762); test: TRPA1 block, test not specified; conditions: summary statement
Target sequence in this assay (O75762 whole entry, species assumed): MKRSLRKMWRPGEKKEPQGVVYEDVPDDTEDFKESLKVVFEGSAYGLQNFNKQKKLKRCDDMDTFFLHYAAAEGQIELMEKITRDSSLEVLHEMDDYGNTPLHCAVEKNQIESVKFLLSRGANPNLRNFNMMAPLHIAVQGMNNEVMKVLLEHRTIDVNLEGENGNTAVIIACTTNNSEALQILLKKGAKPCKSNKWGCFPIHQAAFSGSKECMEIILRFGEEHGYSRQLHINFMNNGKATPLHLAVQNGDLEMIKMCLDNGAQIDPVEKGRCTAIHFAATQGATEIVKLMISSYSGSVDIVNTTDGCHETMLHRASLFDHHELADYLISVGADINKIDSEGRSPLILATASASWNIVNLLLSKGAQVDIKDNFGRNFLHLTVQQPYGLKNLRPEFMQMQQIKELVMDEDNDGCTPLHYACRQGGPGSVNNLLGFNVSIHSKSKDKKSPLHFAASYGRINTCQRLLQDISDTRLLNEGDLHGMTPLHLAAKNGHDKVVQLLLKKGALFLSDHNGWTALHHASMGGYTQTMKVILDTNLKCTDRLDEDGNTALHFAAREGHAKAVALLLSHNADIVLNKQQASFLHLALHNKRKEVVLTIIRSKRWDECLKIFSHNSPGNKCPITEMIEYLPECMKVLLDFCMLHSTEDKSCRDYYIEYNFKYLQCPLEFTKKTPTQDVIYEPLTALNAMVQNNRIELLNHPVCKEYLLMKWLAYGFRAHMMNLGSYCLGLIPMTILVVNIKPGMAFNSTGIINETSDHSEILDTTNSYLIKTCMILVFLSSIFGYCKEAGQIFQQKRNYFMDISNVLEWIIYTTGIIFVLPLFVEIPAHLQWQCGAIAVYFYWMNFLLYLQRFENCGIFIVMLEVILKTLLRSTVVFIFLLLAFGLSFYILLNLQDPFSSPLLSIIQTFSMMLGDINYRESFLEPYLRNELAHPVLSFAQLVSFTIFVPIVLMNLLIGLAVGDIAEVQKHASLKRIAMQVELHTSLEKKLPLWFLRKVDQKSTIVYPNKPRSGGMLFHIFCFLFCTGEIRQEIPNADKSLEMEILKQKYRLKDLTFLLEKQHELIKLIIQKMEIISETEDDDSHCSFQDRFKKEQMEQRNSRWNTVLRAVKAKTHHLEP

TRPA1 [11] = target: T5, TRPA1; test: FLIPR calcium-influx assay, block of cinnamaldehyde activation, CHO cells; type: cell-based; set-up: expressed in transfected cells; conditions: elicited by 50 μM cinnamaldehyde
Target sequence in this assay (O75762 whole entry): as the sequence (O75762 whole entry, species assumed) above

TRPA1 [12] = target: T5, TRPA1; test: Cinnamaldehyde-induced currents in inside-out excised patches of Xenopus oocytes; type: cell-based; set-up: expressed in transfected cells; host or cells: Xenopus oocytes injected with cRNA (pOX vector); conditions: coapplication with cinnamaldehyde, inside-out macropatches
Target sequence in this assay (O75762 whole entry): as the sequence (O75762 whole entry, species assumed) above

IC50 (mouse TRPA1): 4.5 µM | block of rat TRPA1 (rat TRPA1): blocked | block of TRPV1 (TRPV1): did not block | block of TRPV4 (TRPV4): did not block | block of TRPM8 (TRPM8): did not block | behavioral response to the compound alone [2]: did not cause any behavioral response | IC50 (TRPA1 [11]): 3.1 µM | block of cinnamaldehyde-induced TRPA1 currents in excised patches (TRPA1 [12]): suppressed; also recorded: blocked
Structure (SMILES): CC(=Cc1ccc(Cl)cc1)C(C)=NO [Compound 18, (Z)-4-(4-chlorophynyl)-3-methylbut-3-en-2-oxime]
cinnamaldehyde-induced nociceptive events (time spent licking and flicking hindpaw, 5 min) [1]: suppresses; also recorded: significantly blocked | nociceptive responses to acute heat to the paw [3]: not affected | nociceptive responses to acute pressure to the paw [3]: not affected | CFA-induced mechanical hyperalgesia [4]: reverses; also recorded: relieved | BK-induced mechanical nociceptive behavior [5]: reverses | CFA-induced heat hyperalgesia [6]: not thermal (heat) behaviours; also recorded: did not block | BK-induced heat hyperalgesia [7]: not thermal (heat) behaviours; also recorded: did not block | CFA-induced cold hyperalgesia (flicks, licks, paw raises for 10 min) [8]: reverses cold behaviours; also recorded: robust block | effect on activation or activities of the other thermoTRPs [9]: little or no effect | inhibition of TRPA1 activation or function (TRPA1 [10]): specifically inhibit TRPA1 activation or function
